Source: publication PMC10459552, “Cardiomyocyte-Targeting Peptide to Deliver Amiodarone” (Pharmaceutics, 2023)
Structures can show the parent of a compound that is named as a salt.

Key:
guinea pig hearts = assay: Optical mapping of voltage and Ca2+ in Langendorff-perfused hearts after daily intraperitoneal injection; conditions: same dosing; for AP and CaT durations compared to control hearts: recovery to 90% of baseline, Figure 4c, e
Protocol: At the end of the study, the GPs were euthanized, the hearts excised and perfused on a Langendorff apparatus with Tyrode’s solution containing (in mM): NaCl (130), KCl (4), MgSO4 (1.2), NaHCO3 (25), Glucose (5), CaCl2 (1.25), and Mannitol (45), and gassed with 95% O2 and 5% CO2, with a pH of 7.0, at 37 °C. The hearts were placed in a custom-designed chamber to subdue the motion artifacts, along with a 15 min blebbistatin (5 µM) in perfusate to minimize the contractions. Bolus injections of voltage (RH237, 25 µL of 2 mg/mL dimethyl sulfoxide (DMSO)) and Ca^2+-indicator dye (Rhod-2/AM, 200 µL of 2 mg/mL DMSO) were injected in the air trap above the aortic cannula. Fluorescence from the epicardium was collected with a camera lens, split with a 570 nm dichroic mirror and focused on two CMOS cameras (Sci-Media UltimaOne, Costa Mesa, CA, USA) capturing the fluorescence emission at 570–595 nm for the cytosolic Ca^2+ and 610–750 nm wavelengths for the voltage, as described in detail previously [33]. After resting sinus rhythm image acquisition, the hearts were paced at 250 ms with programmed stimulation to measure and compare the conduction velocity and transient duration (90%) of various treatment groups.
Adult male GPs (250–350 g) were injected intraperitoneally with amiodarone (80 mg/kg; n = 4) daily for 7 days, CTP–amio (26.3 mg/kg; n = 4) for 5 days, or CTP alone (17.8 mg/kg; n = 4) for 5 days and compared to vehicle-only injected GPs (n = 10). At the end of the injection period, the GPs were euthanized, and their hearts were excised and perfused in a Langendorf apparatus. The hearts were labeled with a voltage-sensitive dye (RH 237) and a Ca^2+ indicator (Rhod-2/AM) with a bolus injection in the perfusate in the air trap above the aortic cannula. Fluorescence images of the heart were focused on 2 CMOS cameras, one to detect voltage and the other intracellular free Ca^2+. The heart rate, action potentials (APs), and intracellular free-Ca^2+ transients (CaT) were measured from 10,000 pixels of the voltage and Ca^2+ CMOS cameras (Supplemental Figure S1). Durations of the APs and CaTs were calculated from the first derivative of the rise of the signals to their recovery to 90% of the baseline.

mice = conditions: biodistribution studies; cited from earlier work
Description: The ability of cationic or hydrophobic cell-penetrating peptides to transduce a wide variety of tissue types in vivo limits their clinical utility because of their lack of cell specificity, leading to a higher chance of off-target adverse side effects. Phage display using libraries of various lengths and various bacteriophage strains have been successfully utilized to identify tissue-specific penetrating peptides. In our prior work, we employed a combinatorial in vitro and in vivo M13 phage display methodology to identify a 12-amino-acid, synthetic, mildly bas ...

[1] = test system: guinea pig hearts (gene expression); assay: RNA sequencing of treated hearts versus control hearts; type: in vivo; conditions: CTP-treated hearts versus controls
Protocol: Libraries were generated with the Illumina Stranded mRNA Library Prep kit (Illumina: 20040534, San Diego, CA, USA), according to the manufacturer’s instructions. RNA was assessed for quality using a Total RNA 15 nt kit (Agilent: DNF-471-33) on an Advanced Analytical 5300 Fragment Analyzer. The RNA concentration was quantified with a Qubit BR RNA assay kit (Invitrogen: Q10211) on a Qubit 4 (Invitrogen: Q33238). Briefly, 50 ng of input RNA was used for each sample. Following adapter ligation, 15 cycles of indexing PCR were completed, using IDT for Illumina RNA UD Indexes (Illumina: 20040553). Library assessment and quantification were performed using Qubit 1x HS DNA (Invitrogen: Q33231) on a Qubit 4 fluorometer and a HS NGS Fragment kit (Agilent: DNF-474-1000). […] The pooled library was loaded at 750 pM, and sequencing was carried out with read lengths of 2 × 101 bp, with an average of ~40 million reads per sample. […]
The raw RNA sequencing (RNA-Seq) paired-end reads for the guinea pig (GP) samples were processed through the Mayo RNA-Seq bioinformatics pipeline, RapMap version 1.0.0. Briefly, the raw reads were trimmed with a base quality cutoff of Phred score Q30 using Trimmomatic. […]
Using the gene-level counts from RapMap, genes differentially expressed between the control and treated groups were assessed using the bioinformatics package edgeR 2.6.2 [37]. […]

Compound	heart rate during sinus rhythm compared to control hearts (guinea pig hearts; Figure 4a)	conduction velocity (CV) of the APs and CaT compared to control hearts (guinea pig hearts; Figure 4b, d)	calcium transients compared to the controls (guinea pig hearts; Rhod-2/AM fluorescence)	AP and CaT durations compared to control hearts (guinea pig hearts)	crossing of the blood–brain barrier (mice)	route of excretion (mice)	expression of α-adrenergic receptors [1]	expression of β-adrenergic receptors [1]
CCCCc1oc2ccccc2c1C(=O)c1cc(I)c(OCCN(CC)CC)c(I)c1 [amiodarone, Amiodarone hydrochloride]	significantly decreased	decreased	significantly decreased	increased	–	–	–	–
NH2-APWHLSSQYSRT-COOH (H-APWHLSSQYSRT-OH) [CTP, 12-amino-acid, synthetic, mildly basic, non-naturally occurring cell-penetrating peptide identified by phage display]	–	–	–	decreased	does not cross	predominantly by a renal followed by a hepatobiliary mechanism	upregulation	downregulation
